Results published in US20190255019A1, “NOVEL DOSAGE REGIMEN” (Biogen MA Inc., priority 2016, published 2019).
Like-named read-outs stand apart in the source and are kept apart here.

Assays:
[1] = cited from earlier work
Human Nav1.7 = Human Nav1.7 (Homo sapiens, UniProt Q15858); test: In vitro assay quantifying block of hNav1.7 at mid point inactivation, read at free plasma Cmax; type: biochemical; details: at free plasma Cmax of 200 mg bid
Source text: In Table 1, free plasma CMax exposures of Example 1 obtained from modelling different dosing regimens were used to quantify the resulting amount of block at the primary target hNaV1.7. […] Doses of marketed drugs used in trigeminal neuralgia were compared using the same paradigm.

trigeminal neuralgia = details: 200 mg bid, TN; cited from earlier work

Sequence of Human Nav1.7 (Q15858 whole entry): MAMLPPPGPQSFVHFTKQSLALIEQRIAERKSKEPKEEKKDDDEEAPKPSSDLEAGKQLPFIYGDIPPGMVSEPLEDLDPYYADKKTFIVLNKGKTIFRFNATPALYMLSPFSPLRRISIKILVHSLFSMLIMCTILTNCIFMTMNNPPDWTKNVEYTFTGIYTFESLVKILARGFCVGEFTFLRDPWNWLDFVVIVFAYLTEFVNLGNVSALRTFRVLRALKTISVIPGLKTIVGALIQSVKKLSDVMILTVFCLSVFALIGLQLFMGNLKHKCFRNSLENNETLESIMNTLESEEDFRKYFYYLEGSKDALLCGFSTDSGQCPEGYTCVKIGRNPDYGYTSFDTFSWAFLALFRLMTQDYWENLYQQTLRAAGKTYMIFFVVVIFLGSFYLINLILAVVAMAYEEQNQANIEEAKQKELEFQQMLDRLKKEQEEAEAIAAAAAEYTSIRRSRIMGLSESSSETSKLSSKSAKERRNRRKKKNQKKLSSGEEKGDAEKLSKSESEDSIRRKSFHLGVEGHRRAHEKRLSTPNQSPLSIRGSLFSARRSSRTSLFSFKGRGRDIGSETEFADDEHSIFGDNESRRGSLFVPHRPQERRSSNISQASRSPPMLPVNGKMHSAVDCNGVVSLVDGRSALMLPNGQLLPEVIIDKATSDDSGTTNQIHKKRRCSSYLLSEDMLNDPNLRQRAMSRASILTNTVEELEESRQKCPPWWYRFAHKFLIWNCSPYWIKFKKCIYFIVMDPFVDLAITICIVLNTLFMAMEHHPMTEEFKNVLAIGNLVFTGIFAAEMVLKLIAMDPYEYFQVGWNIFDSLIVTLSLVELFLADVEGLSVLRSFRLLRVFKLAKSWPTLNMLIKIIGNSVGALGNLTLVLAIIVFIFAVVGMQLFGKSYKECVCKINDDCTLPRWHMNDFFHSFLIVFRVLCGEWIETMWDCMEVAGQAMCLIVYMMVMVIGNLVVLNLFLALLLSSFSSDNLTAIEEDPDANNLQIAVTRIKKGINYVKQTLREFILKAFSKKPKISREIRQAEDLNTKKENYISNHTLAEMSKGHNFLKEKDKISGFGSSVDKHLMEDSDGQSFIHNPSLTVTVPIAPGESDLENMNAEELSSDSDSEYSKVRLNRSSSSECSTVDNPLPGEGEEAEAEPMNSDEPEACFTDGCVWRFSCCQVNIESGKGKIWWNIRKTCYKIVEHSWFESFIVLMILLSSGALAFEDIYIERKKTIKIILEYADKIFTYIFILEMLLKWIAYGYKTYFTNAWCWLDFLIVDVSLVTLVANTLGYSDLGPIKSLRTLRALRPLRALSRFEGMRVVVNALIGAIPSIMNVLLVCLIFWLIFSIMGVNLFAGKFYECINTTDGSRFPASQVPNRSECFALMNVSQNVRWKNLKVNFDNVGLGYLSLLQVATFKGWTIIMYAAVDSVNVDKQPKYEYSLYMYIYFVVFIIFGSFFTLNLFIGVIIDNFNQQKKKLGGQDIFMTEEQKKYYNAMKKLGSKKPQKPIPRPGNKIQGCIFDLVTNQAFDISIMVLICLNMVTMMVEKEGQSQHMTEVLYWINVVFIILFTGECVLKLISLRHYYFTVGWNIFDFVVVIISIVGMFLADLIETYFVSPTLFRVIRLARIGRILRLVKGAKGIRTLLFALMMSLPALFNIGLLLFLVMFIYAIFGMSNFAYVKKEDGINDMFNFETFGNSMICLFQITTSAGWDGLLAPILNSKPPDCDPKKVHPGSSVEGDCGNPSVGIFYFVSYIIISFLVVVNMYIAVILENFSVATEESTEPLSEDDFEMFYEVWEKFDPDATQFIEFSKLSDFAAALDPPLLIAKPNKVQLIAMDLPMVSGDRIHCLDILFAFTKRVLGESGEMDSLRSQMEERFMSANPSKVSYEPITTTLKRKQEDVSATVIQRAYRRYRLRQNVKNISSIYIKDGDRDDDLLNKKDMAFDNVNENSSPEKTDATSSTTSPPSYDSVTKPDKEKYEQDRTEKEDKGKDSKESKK

Structure (SMILES): NC(=O)N1c2ccccc2C=Cc2ccccc21 [Carbamazepine]
- Cmax Free plasma ([1]; Carbamazepine 200 mg qid): 4 to 12 µM
- Free fraction ([1]; Carbamazepine 200 mg qid): 24%

Structure (SMILES): Nc1nnc(-c2cccc(Cl)c2Cl)c(N)n1 [Lamotrigine]
- Human Nav1.7 % Inhibition (Human Nav1.7): 6%
- Clinical efficacy (trigeminal neuralgia): NO EFFICACY
- Cmax Free plasma ([1]; Lamotrigine 200 mg bid): 5.8 µM
- Free fraction ([1]; Lamotrigine 200 mg bid): 44%
